Data: ChEMBL document CHEMBL5528049, “Discovery of (4-Pyrazolyl)-2-aminopyrimidines as Potent and Selective Inhibitors of Cyclin-Dependent Kinase 2” (J Med Chem, 2024)
≈ marks a conversion by molar mass, not a printed value.

Experiments:
[1] = biological target: Cyclin-dependent kinase 1/cyclin B1 (Homo sapiens, UniProt P06493); test: Inhibition of N-terminal GST-tagged full length human CDK1 (1 to 297 residues)/human Cyclin B1 (1 to 433 residues) expressed in baculovirus infected Sf21 cells incubated for 60 mins in presence of ATP by HTRF assay
[2] = biological target: Cyclin-dependent kinase 2/cyclin E1 (Homo sapiens, UniProt P24941); test: Inhibition of N-terminal GST-tagged full-length human CDK2(1 to 298 residues) /FLAG-tagged human Cyclin E1 (1 to 410 residues) expressed in baculovirus-infected Sf21 cells incubated for 60 mins in presence of ATP by HTRF assay
[3] = biological target: CDK6/cyclin D3 (Homo sapiens, UniProt Q00534); test: Inhibition of N-terminal GST-tagged human CDK6 (1 to 326 residues)/N-terminal 6-His fused human Cyclin D3 (1 to 292 residues) expressed in Sf9 insect cells incubated for 60 mins by HTRF assay
[4] = biological target: Cyclin-dependent kinase 4/cyclin D1 (Homo sapiens, UniProt P11802); test: Inhibition of N-terminal GST-tagged human CDK4 (4 to 303 residues)/N-terminal GST-tagged human Cyclin D1 (4 to 295 residues) expressed in Sf9 insect cells incubated for 60 mins in presence of ATP by HTRF assay
[5] = biological target: T1, Cyclin-dependent kinase 2 (Homo sapiens, UniProt P24941); test: Inhibition of CDK2 in human whole blood spiked with CCNE1-amplified human COV318 cells assessed as reduction in retinoblastoma protein phosphorylation at S780 residue incubated overnight by HTRF microplate reader; format: cell-based
[6] = Intrinsic clearance in human liver microsomes at 1 uM measured upto 30 mins by LC/MS analysis; format: ADME, Microsome; settings: read-out: CLH (converted)
[7] = species: Homo sapiens; test: Selectivity index, ratio of IC50 for inhibition of N-terminal GST-tagged full length human CDK1 (1 to 297 residues)/human Cyclin B1 (1 to 433 residues) expressed in baculovirus infected Sf21 cells to IC50 for inhibition of N-terminal GST-tagged full-length human CDK2(1 to 298 residues) /FLAG-tagged human Cyclin E1 (1 to 410 residues) expressed in baculovirus-infected Sf21 cells
[8] = Protein binding in human plasma assessed as free fraction incubated for 2 hrs by LC-MS/MS analysis; format: ADME, cell-free
[9] = Solubility of compound in SGF by HPLC analysis
[10] = Apparent permeability from apical to basolateral side in human Caco-2 cells at 50 uM incubated for 120 mins by LCMS analysis
[11] = biological target: Tyrosine-protein kinase JAK2 (Homo sapiens, UniProt O60674); test: Inhibition of JAK2 (unknown origin) incubated for 90 mins in presence of ATP by fluorescence microplate reader
[12] = biological target: CDK7/Cyclin H/MNAT1 (Homo sapiens, UniProt P50613); test: Inhibition of C-terminal 6-His tagged recombinant full-length human CDK7/recombinant full-length human Cyclin H/N-terminal GST-tagged recombinant full-length human MAT1 expressed in baculovirus infected Sf21 insect cells incubated for 60 mins in presence of ATP by HTRF assay
[13] = species: Homo sapiens; test: (§1) Selectivity index, ratio of IC50 for inhibition of N-terminal GST-tagged human CDK6 (1 to 326 residues)/N-terminal 6-His fused human Cyclin D3 (1 to 292 residues) expressed in Sf9 insect cells to IC50 for inhibition of N-terminal GST-tagged full-length human CDK2(1 to 298 residues) /FLAG-tagged human Cyclin E1 (1 to 410 residues) expressed in baculovirus-infected Sf21 cells
[14] = biological target: CDK9/cyclin T1 (Homo sapiens, UniProt P50750); test: Inhibition of N-terminal GST-tagged full length human CDK9 (1 to 372 residues)/His-tagged human Cyclin T1 (1 to 726 residues) expressed in baculovirus infected Sf21 insect cells incubated for 60 mins by HTRF assay
[15] = species: Homo sapiens; test: Selectivity index, ratio of IC50 for inhibition of N-terminal GST-tagged full length human CDK9 (1 to 372 residues)/His-tagged human Cyclin T1 (1 to 726 residues) expressed in baculovirus infected Sf21 insect cells to IC50 for inhibition of N-terminal GST-tagged full-length human CDK2(1 to 298 residues) /FLAG-tagged human Cyclin E1 (1 to 410 residues) expressed in baculovirus-infected Sf21 cells
[16] = species: Homo sapiens; test: Selectivity index, ratio of IC50 for inhibition of C-terminal 6-His tagged recombinant full-length human CDK7/recombinant full-length human Cyclin H/N-terminal GST-tagged recombinant full-length human MAT1 expressed in baculovirus infected Sf21 insect cells to IC50 for inhibition of N-terminal …
[17] = biological target: T1, Cyclin-dependent kinase 2; test: Inhibition of CDK2 in CCNE1-amplified human COV318 cells assessed as reduction in retinoblastoma protein phosphorylation at S780 residue incubated overnight by HTRF microplate reader; format: cell-based
[18] = species: Homo sapiens; test: as §1, with “CDK4 (4” for “CDK6 (1”, “303” for “326”, “GST-tagged” for “6-His fused”, “D1 (4” for “D3 (1”, “295” for “292”

Compound | IC50 [1] [µM] | IC50 [2] [µM] | IC50 [3] [µM] | IC50 [4] [µM] | IC50 [5] [µM] | CLint scaled at 1 µM [6] [L/h/kg] | Ratio IC50 [7] | fraction unbound at 2 h [8] | solubility [9] [mg/mL] | Papp A→B at 2 h, 50 µM [10] [nm/s] | other results
CS(=O)(=O)N1CCC(Nc2ncc(C(F)(F)F)c(-c3cnn(-c4ccccc4Cl)c3)n2)CC1 | 0.09 | 0.00056 | 0.024 | 0.01 | 0.823 | 1 | 160 |  |  |  | 
Cn1cc(S(=O)(=O)N2CCC(Nc3ncc(C(F)(F)F)c(-c4cnn(CC(F)(F)F)c4)n3)CC2)cn1 |  |  |  |  |  | 0.5 |  | 0.059 | < 0.001 | 190 | 
Cn1cnc(S(=O)(=O)N2CCC(Nc3ncc(C#N)c(-c4cnn(CC(F)(F)F)c4)n3)CC2)c1 |  |  |  |  |  | < 0.5 |  |  | 0.005 (≈ 10.1 µM) | 6 | 
CS(=O)(=O)N1CCC(Nc2ncc(C(F)(F)F)c(-c3cnn(-c4ccc(C#N)cc4Cl)c3)n2)CC1 |  |  |  |  |  | 0.5 |  | 0.012 |  |  | 
Cc1cnc(Nc2ccc(NS(C)(=O)=O)cc2)nc1-c1cnn(C(CC#N)C2CCCC2)c1 (racemic) |  | 0.607 |  |  |  |  |  |  |  |  | IC50 [11]: < 0.001 µM
N#Cc1cnc(NC2CCN(S(=O)(=O)c3ccccn3)CC2)nc1-c1cnn(CC(F)(F)F)c1 |  |  |  |  |  | 0.8 |  | 0.035 | < 0.001 | 180 | 
CN1CCC(n2cc(-c3nc(NC4CCN(S(C)(=O)=O)CC4)ncc3C(F)(F)F)cn2)CC1 | 0.174 | 0.0061 | 0.153 | 0.02 | 0.708 | 0.7 | 29 |  | > 0.4 |  | 
CNCc1ccc(-n2cc(-c3nc(NC4CCN(S(C)(=O)=O)CC4)ncc3C(F)(F)F)cn2)c(Cl)c1 | 0.043 | 0.00053 | 0.058 | 0.011 | 0.263 | 0.7 | 81 | 0.078 | 0.094 (≈ 173 µM) | 33 | IC50 [12]: 0.033 µM; Ratio IC50 [13]: 109; IC50 [14]: 3.13 µM; Ratio IC50 [15]: 5900; Ratio IC50 [16]: 62; IC50 [17]: 0.025 µM; Ratio IC50 [18]: 21
CC(C)(O)Cn1cc(-c2nc(NC3CCN(S(C)(=O)=O)CC3)ncc2C(F)(F)F)cn1 | 0.063 | 0.00042 | 0.16 | 0.037 | 1.21 | < 0.5 | 150 |  | 0.842 (≈ 1820 µM) |  | 
